In ChEMBL document CHEMBL1121912, “Purine acyclic nucleosides. Nitrogen isosteres of 9-[(2-hydroxyethoxy)methyl]guanine as candidate antivirals” (J Med Chem, 1981) one finds Plaque inhibition result and IC50 data, which are given here for 6 compounds.

What all share (assay type): functional, organism-based
Test [1] has as its system Human alphaherpesvirus 1. The test can be described thus: The compound was tested for plaque inhibition in HSV-1 in cell culture; - = in active at 50 ug per disk.
Test [2] concerns Human alphaherpesvirus 1. The test is described as follows: The compound was tested for plaque inhibition in HSV-1 in cell culture, activity is determined by plaque reduction assay. In general terms: Plaque reduction counts the foci of infection that form in a cell layer.
Test [3] has as its system Human alphaherpesvirus 1. The test is described as follows: The compound was tested for plaque inhibition in HSV-1 in cell culture; +=active at 50 ug per disk.

Molecules are shown by their SMILES. pIC50: −log10 of the molar value. Activity calls are given as the source filed them. The rule behind the calls is not given here.

As for `CC(=O)NCCOCn1cnc2c(O)nc(N)nc21`, in test [1], the Plaque inhibition result was “inactive”.
In turn, `Nc1nc2c(ncn2COCCO)c(=O)[nH]1` [ACYCLOVIR] had a pIC50 in test [2] of 7.00. Besides, the Plaque inhibition result in test [3] was “active at 50 ug per disk”.
As for `Nc1nc(O)c2ncn(COCCNCCO)c2n1`, the Plaque inhibition result in test [1] was “inactive”.
On to `NCCOCn1cnc2c(N)nc(N)nc21`, for which the Plaque inhibition result in test [1] was “inactive”.
`NCCOCn1cnc2c(O)nc(N)nc21` showed a pIC50 in test [2] of 5.10. Besides, in test [3], the Plaque inhibition result is “active at 50 ug per disk”.
`NCCOCCOCn1cnc2c(O)nc(N)nc21`: the Plaque inhibition result in test [1] was “inactive”.

What is called pIC50 is the IC50 on a negative log10 scale, so that one unit is a factor of ten. Read a high pIC50 as a low IC50.
